These are literature values, as cited in patent publication US7364752B1, “Solid dispersion pharamaceutical formulations” (Abbott Laboratories, priority 1999, dated 2008).

SMILES strings stand for the structures.

For this series the following is noted: PEG solid dispersion formulation.

In the case of `O=C1N(Cc2ccc(CO)cc2)[C@H](Cc2ccccc2)[C@H](O)[C@@H](O)[C@@H](Cc2ccccc2)N1Cc1ccc(CO)cc1` [DMP 323], the bioavailability result is given as “unable to improve the bioavailability”.
